Data published in US6358885B1, “Substituted phenylheterocyclic herbicides” (Mississippi State University, priority 1992, dated 2002).

Columns and labels:
Assay in all cases: Test B preemergence/postemergence greenhouse plant response rating 0 to 10
[1] = system: bedstraw; type: in vivo, Galium aparine; conditions: for Plant response rating, Bedstraw: 0 to 10 scale
Summary of the method: (§1)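 Test chemicals, dissolved in a non-phytotoxic solvent, were applied to soil at planting and, at the same time, over foliage of seedlings at the one to four leaf stage.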

[2] = system: giant foxtail; type: in vivo, Setaria faberii; conditions: for Plant response rating, Giant foxtail: 0 to 10 scale
Summary of the method: as §1

[3] = system: sorghum; type: in vivo, Sorghum bicolor; conditions: for Plant response rating, Sorghum: 0 to 10 scale
Summary of the method: as §1

[4] = system: cotton; type: in vivo, Gossypium hirsutum; conditions: for Plant response rating, Cotton: 0 to 10 scale
Summary of the method: as §1

[5] = system: cocklebur; type: in vivo, Xanthium pensylvanicum; conditions: for Plant response rating, Cocklebur: 0 to 10 scale
Summary of the method: as §1

[6] = system: morningglory; type: in vivo, Ipomoea hederacea; conditions: for Plant response rating, Morningglory: 0 to 10 scale
Summary of the method: as §1

[7] = system: rape; type: in vivo, Brassica napus; conditions: for Plant response rating, Rape: 0 to 10 scale
Summary of the method: as §1

[8] = system: corn; type: in vivo, Zea mays; conditions: for Plant response rating, Corn: 0 to 10 scale
Summary of the method: as §1

[9] = system: soybean; type: in vivo, Glycine max; conditions: for Plant response rating, Soybean: 0 to 10 scale
Summary of the method: as §1

[10] = system: wheat; type: in vivo, Triticum aestivum; conditions: for Plant response rating, Wheat: 0 to 10 scale
Summary of the method: as §1

[11] = system: lambsquarters; type: in vivo, Chenopodium album; conditions: for Plant response rating, Lambsquarter: 0 to 10 scale
Summary of the method: as §1

[12] = system: chickweed; type: in vivo, Stellaria media; conditions: for Plant response rating, Chickweed: 0 to 10 scale
Summary of the method: as §1

[13] = system: wild oat; type: in vivo, Avena fatua; conditions: for Plant response rating, Wild oat: 0 to 10 scale
Summary of the method: as §1

[14] = system: rice; type: in vivo, Oryza sativa; conditions: for Plant response rating, Rice: 0 to 10 scale
Summary of the method: as §1

[15] = system: wild buckwheat; type: in vivo, Polygonum convolvulus; conditions: for Plant response rating, Wild buckwheat: 0 to 10 scale
Summary of the method: as §1

[16] = system: cheatgrass; type: in vivo, Bromus secalinus; conditions: for Plant response rating, Cheatgrass: 0 to 10 scale
Summary of the method: as §1

[17] = system: velvetleaf; type: in vivo, Abutilon theophrasti; conditions: for Plant response rating, Velvetleaf: 0 to 10 scale
Summary of the method: as §1

[18] = system: purple nutsedge; type: in vivo, Cyperus rotundus; conditions: for Plant response rating, Nutsedge: 0 to 10 scale
Summary of the method: as §1

[19] = system: sugar beet; type: in vivo, Beta vulgaris; conditions: for Plant response rating, Sugar beet: 0 to 10 scale
Summary of the method: as §1

[20] = system: blackgrass; type: in vivo, Alopecurus myosuroides; conditions: for Plant response rating, Blackgrass: 0 to 10 scale
Summary of the method: as §1

[21] = system: barnyardgrass; type: in vivo, Echinochloa crus-galli; conditions: for Plant response rating, Barnyardgrass: 0 to 10 scale
Summary of the method: as §1

[22] = system: crabgrass; type: in vivo, Digitaria spp.; conditions: for Plant response rating, Crabgrass: 0 to 10 scale
Summary of the method: as §1

[23] = system: barley; type: in vivo, Hordeum vulgare; conditions: for Plant response rating, Barley: 0 to 10 scale
Summary of the method: as §1

SMILES: C#CC(C)Oc1cc(-c2nn3c(c2Cl)CCCC3)c(Cl)cc1Cl (centres unmarked) [Compound 74]
- Plant response rating, Bedstraw ([1]; POSTEMERGENCE, Rate 50 g/ha): 8
- Plant response rating, Bedstraw ([1]; PREEMERGENCE, Rate 50 g/ha): 0
- Plant response rating (0 to 10 scale), Bedstraw ([1]; PREEMERGENCE, Rate 200 g/ha): 9
- Plant response rating, Bedstraw ([1]; Rate 200 g/ha, POSTEMERGENCE): 9
- Plant response rating, Giant foxtail ([2]; POSTEMERGENCE, Rate 50 g/ha): 5
- Plant response rating, Giant foxtail ([2]; PREEMERGENCE, Rate 50 g/ha): 2
- Plant response rating (0 to 10 scale), Giant foxtail ([2]; PREEMERGENCE, Rate 200 g/ha): 6
- Plant response rating, Giant foxtail ([2]; Rate 200 g/ha, POSTEMERGENCE): 5
- Plant response rating, Sorghum ([3]; POSTEMERGENCE, Rate 50 g/ha): 5
- Plant response rating, Sorghum ([3]; PREEMERGENCE, Rate 50 g/ha): 0
- Plant response rating (0 to 10 scale), Sorghum ([3]; PREEMERGENCE, Rate 200 g/ha): 0
- Plant response rating, Sorghum ([3]; Rate 200 g/ha, POSTEMERGENCE): 7
- Plant response rating, Cotton ([4]; POSTEMERGENCE, Rate 50 g/ha): 10
- Plant response rating, Cotton ([4]; PREEMERGENCE, Rate 50 g/ha): 0
- Plant response rating (0 to 10 scale), Cotton ([4]; PREEMERGENCE, Rate 200 g/ha): 0
- Plant response rating, Cotton ([4]; Rate 200 g/ha, POSTEMERGENCE): 10
- Plant response rating, Cocklebur ([5]; POSTEMERGENCE, Rate 50 g/ha): 9
- Plant response rating, Cocklebur ([5]; PREEMERGENCE, Rate 50 g/ha): 0
- Plant response rating (0 to 10 scale), Cocklebur ([5]; PREEMERGENCE, Rate 200 g/ha): 0
- Plant response rating, Cocklebur ([5]; Rate 200 g/ha, POSTEMERGENCE): 10
- Plant response rating, Morningglory ([6]; POSTEMERGENCE, Rate 50 g/ha): 9
- Plant response rating, Morningglory ([6]; PREEMERGENCE, Rate 50 g/ha): 0
- Plant response rating (0 to 10 scale), Morningglory ([6]; PREEMERGENCE, Rate 200 g/ha): 0
- Plant response rating, Morningglory ([6]; Rate 200 g/ha, POSTEMERGENCE): 9
- Plant response rating, Rape ([7]; POSTEMERGENCE, Rate 50 g/ha): 10
- Plant response rating, Rape ([7]; PREEMERGENCE, Rate 50 g/ha): 0
- Plant response rating (0 to 10 scale), Rape ([7]; PREEMERGENCE, Rate 200 g/ha): 7
- Plant response rating, Rape ([7]; Rate 200 g/ha, POSTEMERGENCE): 10
- Plant response rating, Corn ([8]; POSTEMERGENCE, Rate 50 g/ha): 2
- Plant response rating, Corn ([8]; PREEMERGENCE, Rate 50 g/ha): 0
- Plant response rating (0 to 10 scale), Corn ([8]; PREEMERGENCE, Rate 200 g/ha): 0
- Plant response rating, Corn ([8]; Rate 200 g/ha, POSTEMERGENCE): 4
- Plant response rating, Soybean ([9]; POSTEMERGENCE, Rate 50 g/ha): 6
- Plant response rating, Soybean ([9]; PREEMERGENCE, Rate 50 g/ha): 0
- Plant response rating (0 to 10 scale), Soybean ([9]; PREEMERGENCE, Rate 200 g/ha): 0
- Plant response rating, Soybean ([9]; Rate 200 g/ha, POSTEMERGENCE): 6
- Plant response rating, Wheat ([10]; POSTEMERGENCE, Rate 50 g/ha): 4
- Plant response rating, Wheat ([10]; PREEMERGENCE, Rate 50 g/ha): 0
- Plant response rating (0 to 10 scale), Wheat ([10]; PREEMERGENCE, Rate 200 g/ha): 0
- Plant response rating, Wheat ([10]; Rate 200 g/ha, POSTEMERGENCE): 5
- Plant response rating, Lambsquarter ([11]; POSTEMERGENCE, Rate 50 g/ha): 9
- Plant response rating, Lambsquarter ([11]; PREEMERGENCE, Rate 50 g/ha): 9
- Plant response rating (0 to 10 scale), Lambsquarter ([11]; PREEMERGENCE, Rate 200 g/ha): 10
- Plant response rating, Lambsquarter ([11]; Rate 200 g/ha, POSTEMERGENCE): 10
- Plant response rating, Chickweed ([12]; POSTEMERGENCE, Rate 50 g/ha): 6
- Plant response rating, Chickweed ([12]; PREEMERGENCE, Rate 50 g/ha): 0
- Plant response rating (0 to 10 scale), Chickweed ([12]; PREEMERGENCE, Rate 200 g/ha): 5
- Plant response rating, Chickweed ([12]; Rate 200 g/ha, POSTEMERGENCE): 7
- Plant response rating, Wild oat ([13]; POSTEMERGENCE, Rate 50 g/ha): 4
- Plant response rating, Wild oat ([13]; PREEMERGENCE, Rate 50 g/ha): 0
- Plant response rating (0 to 10 scale), Wild oat ([13]; PREEMERGENCE, Rate 200 g/ha): 3
- Plant response rating, Wild oat ([13]; Rate 200 g/ha, POSTEMERGENCE): 4
- Plant response rating, Rice ([14]; POSTEMERGENCE, Rate 50 g/ha): 3
- Plant response rating, Rice ([14]; PREEMERGENCE, Rate 50 g/ha): 0
- Plant response rating (0 to 10 scale), Rice ([14]; PREEMERGENCE, Rate 200 g/ha): 0
- Plant response rating, Rice ([14]; Rate 200 g/ha, POSTEMERGENCE): 6
- Plant response rating, Wild buckwheat ([15]; POSTEMERGENCE, Rate 50 g/ha): 10
- Plant response rating, Wild buckwheat ([15]; PREEMERGENCE, Rate 50 g/ha): 5
- Plant response rating (0 to 10 scale), Wild buckwheat ([15]; PREEMERGENCE, Rate 200 g/ha): 9
- Plant response rating, Wild buckwheat ([15]; Rate 200 g/ha, POSTEMERGENCE): 10
- Plant response rating, Cheatgrass ([16]; POSTEMERGENCE, Rate 50 g/ha): 6
- Plant response rating, Cheatgrass ([16]; PREEMERGENCE, Rate 50 g/ha): 4
- Plant response rating (0 to 10 scale), Cheatgrass ([16]; PREEMERGENCE, Rate 200 g/ha): 4
- Plant response rating, Cheatgrass ([16]; Rate 200 g/ha, POSTEMERGENCE): 6
- Plant response rating, Velvetleaf ([17]; POSTEMERGENCE, Rate 50 g/ha): 10
- Plant response rating, Velvetleaf ([17]; PREEMERGENCE, Rate 50 g/ha): 5
- Plant response rating (0 to 10 scale), Velvetleaf ([17]; PREEMERGENCE, Rate 200 g/ha): 9
- Plant response rating, Velvetleaf ([17]; Rate 200 g/ha, POSTEMERGENCE): 10
- Plant response rating, Nutsedge ([18]; POSTEMERGENCE, Rate 50 g/ha): 2
- Plant response rating, Nutsedge ([18]; PREEMERGENCE, Rate 50 g/ha): 0
- Plant response rating (0 to 10 scale), Nutsedge ([18]; PREEMERGENCE, Rate 200 g/ha): 0
- Plant response rating, Nutsedge ([18]; Rate 200 g/ha, POSTEMERGENCE): 2
- Plant response rating, Sugar beet ([19]; POSTEMERGENCE, Rate 50 g/ha): 10
- Plant response rating, Sugar beet ([19]; PREEMERGENCE, Rate 50 g/ha): 0
- Plant response rating (0 to 10 scale), Sugar beet ([19]; PREEMERGENCE, Rate 200 g/ha): 10
- Plant response rating, Sugar beet ([19]; Rate 200 g/ha, POSTEMERGENCE): 10
- Plant response rating, Blackgrass ([20]; POSTEMERGENCE, Rate 50 g/ha): 6
- Plant response rating, Blackgrass ([20]; PREEMERGENCE, Rate 50 g/ha): 0
- Plant response rating (0 to 10 scale), Blackgrass ([20]; PREEMERGENCE, Rate 200 g/ha): 8
- Plant response rating, Blackgrass ([20]; Rate 200 g/ha, POSTEMERGENCE): 6
- Plant response rating, Barnyardgrass ([21]; POSTEMERGENCE, Rate 50 g/ha): 5
- Plant response rating, Barnyardgrass ([21]; PREEMERGENCE, Rate 50 g/ha): 0
- Plant response rating (0 to 10 scale), Barnyardgrass ([21]; PREEMERGENCE, Rate 200 g/ha): 1
- Plant response rating, Barnyardgrass ([21]; Rate 200 g/ha, POSTEMERGENCE): 7
- Plant response rating, Crabgrass ([22]; POSTEMERGENCE, Rate 50 g/ha): 3
- Plant response rating, Crabgrass ([22]; PREEMERGENCE, Rate 50 g/ha): 2
- Plant response rating (0 to 10 scale), Crabgrass ([22]; PREEMERGENCE, Rate 200 g/ha): 6
- Plant response rating, Crabgrass ([22]; Rate 200 g/ha, POSTEMERGENCE): 5
- Plant response rating, Barley ([23]; POSTEMERGENCE, Rate 50 g/ha): 2
- Plant response rating, Barley ([23]; PREEMERGENCE, Rate 50 g/ha): 0
- Plant response rating (0 to 10 scale), Barley ([23]; PREEMERGENCE, Rate 200 g/ha): 0
- Plant response rating, Barley ([23]; Rate 200 g/ha, POSTEMERGENCE): 4
